Measured values as given in patent US11052154B2, “Ras protein degradation inducing molecule and pharmaceutical composition” (Tokyo University of Science Foundation, priority 2016, dated 2021).

Assays:
[1] = target: T1, G12V mutant K-Ras protein (Homo sapiens, UniProt P01116, G12V); experiment: Degradation (knockdown) of G12V mutant K-Ras protein forcibly expressed in HeLa cells, FACS analysis; type: cell-based; details: FIG. 3
T1 construct: expressed in transfected cells; host or cells: HeLa
Description: HeLa cells into which the plasmid had been introduced were seeded in a 24-well plate at a cell density of 4×10^4 cells/well, and then cultured under conditions of 37° C. and 5 vol % CO2 for 40 hours.
DMSO was used as a control.

[2] = target: T2, endogenous wild-type K-Ras protein (Homo sapiens, UniProt P01116); experiment: Degradation of endogenous wild-type K-Ras protein in HeLa cells, Western blot analysis; type: cell-based; details: 48 hours after addition, vs control (DMSO), FIG. 5
T2 construct: an endogenous wild-type K-Ras protein; endogenous in cells; host or cells: HeLa
T2 sequence (P01116 1-188 isoform P01116-2): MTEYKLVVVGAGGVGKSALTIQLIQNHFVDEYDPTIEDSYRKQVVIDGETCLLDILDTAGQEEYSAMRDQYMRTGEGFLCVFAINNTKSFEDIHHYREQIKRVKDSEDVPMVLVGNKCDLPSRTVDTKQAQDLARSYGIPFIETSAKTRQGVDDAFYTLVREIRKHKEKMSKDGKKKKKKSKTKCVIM
Description: In Example 6, degradation (knockdown) of an endogenous wild-type K-Ras protein and wild-type H-Ras protein in HeLa cells to which TUS-007 had been added was evaluated by Western blot analysis.
HeLa cells were seeded in a 24-well plate at a cell density of 8×10^4 cells/well, and then cultured under conditions of 37° C. and 5 vol % CO2 for 16 hours.
After 16 hours from cell seeding, TUS-007 was added to HeLa cells as follows. As a medium, a serum-free medium (37° C.) in which 1 mass % L-glutamine solution (Sigma-Aldrich) was added to D-MEM (high D-glucose, phenol red, sodium pyruvate (Wako Pure Chemical Industries, Ltd.)) was used. It is noted that the L-glutamine solution was added immediately before use. A DMSO solution containing TUS-007 was mixed with the medium so that the concentration of DMSO was 1 vol %, and added to each well at 500 μL/well, and cultured under conditions of 37° C. and 5 vol % CO2. As a control, DMSO was used. […]
After electrophoresis, proteins were transferred to a PVDF membrane (Immobion™-P, Millipore) under conditions of 100 V and 2 hours using a tank-type blotting device and a transfer buffer (25 mM Tris-HCl, 195 mM glycine, 0.01% SDS, 15% methanol). […] Subsequently, the membrane was treated with a chemiluminescence reagent Immobilon™ Western (Millipore), and then chemiluminescence was detected using a lumino image analyzer LAS-3000 (FUJIFILM Corporation). […]

T1 sequence (P01116 1-188 isoform P01116-2 G12V): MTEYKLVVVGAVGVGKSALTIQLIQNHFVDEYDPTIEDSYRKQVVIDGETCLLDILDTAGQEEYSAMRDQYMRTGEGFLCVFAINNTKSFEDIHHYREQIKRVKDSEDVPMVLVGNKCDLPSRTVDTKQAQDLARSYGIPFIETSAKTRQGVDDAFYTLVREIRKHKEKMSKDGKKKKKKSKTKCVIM

With CCC(C)[C@H](NC(=O)CCCCCCNC(=O)[C@H](CC(C)C)NC(=O)CNC(=O)c1cc(Cl)ccc1Cl)C(=O)Nc1ccc2[nH]c(Cc3c[nH]c4ccccc34)nc2c1 (stereo in doubt) [TUS-007] the “degradation of the G12V mutant K-Ras protein when both TUS-007 and MLN2238 were added” value ([1]; MLN2238 co-added, compared with TUS-007 alone) was “G12D mutant and G12V mutant K-Ras protein degradation was inhibited”, the “degradation (knockdown) of the G12V mutant K-Ras protein (shift of GFP/DsRed ratio graph)” value ([1]; vs control (DMSO)) was “degradation of the G12D mutant and the G12V mutant K-Ras protein was induced” and the “amount of the endogenous wild-type K-Ras protein (Western blot)” value [2] was “the amount of the endogenous wild-type K-Ras protein and wild-type H-Ras protein was reduced”.
